Like-named read-outs stand apart in the source and are kept apart here.
Key:
[1] = test system: CD32a^high CD4 T cells expressing HLA-E; settings: spleen, 2 macaques treated with GA
Excerpt: FIG. 10A) Flow cytometry dot plots. CD32a^highHLA-E^+ CD4^+ T cells from AGM and macaques are shown in blue. […] MAC=macaque.

[2] = test system: HLA-E restricted (NKG2A/C+) NK cells; settings: at around day 25, chronically SIV-infected GA treated macaques, versus 20%
[3] = MS patients treated with GA for >10 years; cited from earlier work
[4] = test system: HLA-E on CD4 T cells
Excerpt: Follow-up of the percentage of CD4 T cells expressing MHC-E on their surface (FIG. 7D).

[5] = test system: SIVmac251; settings: two weeks treatment with GA, in less than 2 months, chronic SIV infection, no anti-retroviral therapy, pilot study with 2 animals
Description: Correlation between the plasma viral load and the classical CD8 T cells (FIG. 9B) and with the HLA-E restricted CD8 T cells (FIG. 9C) were evaluated. The Spearman coefficients (r) and p-values are indicated.

[6] = test system: HLA-E restricted CD8 T cells; settings: at euthanasia, GA treated animal versus chronically SIV infected AGM
[7] = test system: HLA-E restricted CD8 T cells; settings: at around day 25, chronically SIV-infected GA treated macaques, versus 20%
[8] = test system: pathogenic CD4 T cells; settings: in vivo; cited from earlier work

L-glutamic acid polymer with L-alanine, L-lysine and L-tyrosine, acetate (salt) [GA]
effect on latently infected cells (CD32a^high CD4 T) [1]: targets CD32a^high CD4 T cells expressing HLA-E
CD107a on NK cells [2]: 60%
efficacy [3]: long-term efficacy
expression of HLA-E on CD4 T cells ([4]; animal the most advanced in disease, no HLA-E before treatment, continued to increase after treatment cessation): increase HLA-E levels
expression of HLA-E on CD4 T cells ([4]; animal with already very high expression before treatment): remained as high
decrease of viremia [5]: ≤ 2 logs
levels of HLA-E restricted CD8 T cells in the intestine [6]: comparable levels or even higher to those in AGM
CD107a on HLA-E restricted CD8 T cells [7]: 60%
efficacy in mouse model of inflammatory bowel diseases [8]: efficient
